Source: patent US20080221092A1, “Heterobicyclic metalloprotease inhibitors” (priority 2006, published 2008)

Columns and labels:
[1] = molecular target: T1, catalytic domain of MMP-3 enzyme (Homo sapiens, UniProt P08254); assay: Assay for determining MMP-3 inhibition (fluorescent substrate NFF-3); type: biochemical; conditions: read-out: Summary of MMP-3 Activity for Compounds (IC50 MMP-3, group)
T1 construct: stock solution of the catalytic domain of MMP-3 enzyme (Biomol, Cat. No. SE-109); purchased Biomol SE-109
Description: Assay for Determining MMP-3 Inhibition
The typical assay for MMP-3 activity is carried out in assay buffer comprised of 50 mM MES, pH 6.0, 10 mM CaCl2 and 0.05% Brij-35. Different concentrations of tested compounds are prepared in assay buffer in 50 μl aliquots. 10 μl of a 100 nM stock solution of the catalytic domain of MMP-3 enzyme (Biomol, Cat. No. SE-109) is added to the compound solution. The mixture of enzyme and compound in assay buffer is thoroughly mixed and incubated for 10 min at room temperature. Upon the completion of incubation, the assay is started by addition of 40 μl of a 12.5 μM stock solution of NFF-3 fluorescent substrate (Calbiochem, Cat. No. 480455). The time-dependent increase in fluorescence is measured at the 330 nm excitation and 390 nm emission by an automatic plate multireader. The IC50 values are calculated from the initial reaction rates.

[2] = molecular target: T2, catalytic domain of MMP-13 enzyme (Homo sapiens, UniProt P45452); assay: Assay for determining MMP-13 inhibition (fluorescent substrate); type: biochemical; conditions: read-out: Summary of MMP-13 Activity for Compounds (IC50 MMP-13, group)
T2 construct: stock solution of catalytic domain of MMP-13 enzyme (produced by Alantos or commercially available from Invitek); purchased Invitek (Berlin) 30100812
Description: Assay for Determining MMP-13 Inhibition
The typical assay for MMP-13 activity is carried out in assay buffer comprised of 50 mM Tris, pH 7.5, 150 mM NaCl, 5 mM CaCl2 and 0.05% Brij-35. Different concentrations of tested compounds are prepared in assay buffer in 50 μl aliquots. 10 μl of a 50 nM stock solution of catalytic domain of MMP-13 enzyme (produced by Alantos or commercially available from Invitek (Berlin), Cat. No. 30100812) is added to the compound solution. The mixture of enzyme and compound in assay buffer is thoroughly mixed and incubated for 10 min at room temperature. Upon the completion of incubation, the assay is started by addition of 40 μl of a 12.5 μM stock solution of MMP-13 fluorescent substrate (Calbiochem, Cat. No. 444235). The time-dependent increase in fluorescence is measured at the 320 nm excitation and 390 nm emission by automatic plate multireader. The IC50 values are calculated from the initial reaction rates.

T1 sequence (P08254 100-272 limits assumed): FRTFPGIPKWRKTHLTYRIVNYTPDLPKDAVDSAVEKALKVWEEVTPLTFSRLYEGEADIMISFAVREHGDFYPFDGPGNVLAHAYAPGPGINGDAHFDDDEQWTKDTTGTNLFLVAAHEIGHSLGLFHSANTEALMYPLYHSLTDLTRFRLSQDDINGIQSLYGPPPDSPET

SMILES	IC50 [1]	IC50 [2]
CC(C)(C)OC(=O)Nc1c[nH]c2c(C(=O)NCc3ccc4c(c3)NC(=O)CO4)ncnc12 [Example 1]	101 to 20000 nM	–
O=C(NCc1ccc(F)c(Cl)c1)c1ncnc2c(Br)c[nH]c12 [Example 4]	101 to 20000 nM	101 to 20000 nM
O=C(NCc1ccc(F)cc1)c1ncnc2c(Br)c[nH]c12 [Example 5]	101 to 20000 nM	101 to 20000 nM
O=C1COc2ccc(CNC(=O)c3ncnc4c([N+](=O)[O-])c[nH]c34)cc2N1 [Example 6]	101 to 20000 nM	101 to 20000 nM
O=C(NCc1ccc(F)c(Cl)c1)c1ncnc2c([N+](=O)[O-])c[nH]c12 [Example 7]	101 to 20000 nM	101 to 20000 nM
CCOC(=O)c1c[nH]c2c(C(=O)NCc3ccc4c(c3)NC(=O)CO4)ncnc12 [Example 8]	3 to 100 nM	101 to 20000 nM
O=C1COc2ccc(CNC(=O)c3ncnc4nc[nH]c34)cc2N1 [Example 9]	101 to 20000 nM	101 to 20000 nM
O=C1COc2ccc(CNC(=O)c3ncnc4cc[nH]c34)cc2N1 [Example 13]	101 to 20000 nM	101 to 20000 nM
Nc1c[nH]c2c(C(=O)NCc3ccc4c(c3)NC(=O)CO4)ncnc12 [Example 15]	101 to 20000 nM	101 to 20000 nM
O=C(O)c1c[nH]c2c(C(=O)NCc3ccc(F)cc3)ncnc12 [Example 19]	101 to 20000 nM	101 to 20000 nM
O=C(O)c1c[nH]c2c(C(=O)NCc3ccc(F)c(Cl)c3)ncnc12 [Example 20]	101 to 20000 nM	101 to 20000 nM
O=C1COc2ccc(CNC(=O)c3ncnc4c(C(=O)O)c[nH]c34)cc2N1 [Example 21]	3 to 100 nM	101 to 20000 nM
Nc1n[nH]c2c(C(=O)NCc3ccc(F)c(Cl)c3)ncnc12 [Example 22]	101 to 20000 nM	101 to 20000 nM
Nc1n[nH]c2c(C(=O)NCc3ccc4c(c3)NC(=O)CO4)ncnc12 [Example 23]	101 to 20000 nM	3 to 100 nM
CS(=O)(=O)Nc1c[nH]c2c(C(=O)NCc3ccc4c(c3)NC(=O)CO4)ncnc12 [Example 25]	3 to 100 nM	101 to 20000 nM
O=C1COc2ccc(CNC(=O)c3ncnc4c(NS(=O)(=O)c5cccs5)c[nH]c34)cc2N1 [Example 26]	101 to 20000 nM	101 to 20000 nM
O=C1COc2ccc(CNC(=O)c3ncnc4c(NS(=O)(=O)Cc5ccccc5)c[nH]c34)cc2N1 [Example 27]	101 to 20000 nM	101 to 20000 nM
O=C1COc2ccc(CNC(=O)c3ncnc4c(NS(=O)(=O)c5ccc(Cl)cc5)c[nH]c34)cc2N1 [Example 28]	101 to 20000 nM	101 to 20000 nM
